Measurements as given in patent US20220162548A1, “PRODUCING ISOTHIOCYANATES FROM CALLUS SUSPENSION CULTURES” (PERPETUUM CROPSCIENCE BVBA, priority 2019, published 2022).

Test system: NON-GMO Impala F1 Cabbage (Brassica oleracea L. var. capitata) callus cultures
Assay: Elicitation of callus cultures, benzyl isothiocyanate accumulation and callus weight
Format: cell-based
Conditions: for Concentration of benzyl isothiocyanate / Dry weight / Fresh weight: four weeks of culture
Description: 10 g of calli (fresh weight/vessel) was transferred to the same medium composition in addition to different concentrations of chitosan (200, 400 and 600 mg/L) and salicylic acid (10, 20 and 40 mg/L) as biotic elicitors, in addition to the control treatment without elicitors. After calli was collected, the fresh and dry weights were determined. Dry weight was determined after drying the calli at 45° C. in an oven until a constant weight was obtained. Benzyl Isothiocyanate concentration was also recorded with each treatment. After four weeks of culture, data was documented.
To determine Benzyl Isothiocyanate content, high performance liquid chromatography (HPLC) was performed. The extraction of Benzyl Isothiocyanate was carried out from calli and cells from Erlenmeyer flask culture and single-use ReadyToProcess WAVE Cellbag bioreactor experiments. Samples were homogenized using a glass mortar and pestle (MilliporeSigma, Belgium) containing 70:30 (v:v) MeOH:sterilized water. Extracts were then transferred to glass stoppered Erlenmeyer flasks (DWK Life Sciences) and conditioned in a thermostatic bath (Fisherscientific, Belgium) under constant agitation. For 30 minutes the extraction was carried out at 70° C. and then filtered on Invitrolon PVDF membranes (Polyvinylidene Fluoride) ([…], ThermoFisher Scientific, Belgium) prior to HPLC injection.
Methanolic extracts of the samples were analyzed by HPLC for Benzyl Isothiocyanate concentration using an external standard. HPLC system (Ultimate 3000 Automated System, ThermoFisher Scientific, Belgium) was coupled with UV-Vis detector (UltiMate 3000 Multiple Wavelength Detector, ThermoFisher Scientific, Belgium) and vacuum degasser (UltiMate 3000 SRD-3400 HPLC Degasser, ThermoFisher Scientific, Belgium).
Sample injections of 20 μl were made by an autosampler (UltiMate 3000 WPS-3000 Autosampler, ThermoFisher Scientific, Belgium); the chromatographic separations were performed on C18 Reversed Phase LC columns (Accucore C18 LC Columns, ThermoFisher Scientific, Belgium). Column temperature was maintained at 30° C. and detection wavelength was 253 nm. Optimum efficiency of separation was obtained using methanol (solvent A), and acetonitrile (solvent B) (HPLC grade, Sigma Aldrich, Belgium). The flow rate was 1 ml/minute. The running time for each analysis was 60 minutes, and 10 minutes were required for column cleaning and equilibrium.
The Benzyl Isothiocyanate concentration of the injected samples was calculated as μg/g fresh weight of sample.
Experiments were conducted in a completely randomized design with at least 30 replicates per treatment for the calli experiment and 4 replicates for the cell suspension culture experiments. Data were subjected to statistical analysis by Analysis of Variance (Anova) programme using Duncan's multiple range test as modified by Snedecor and Cochran. Values marked with different letters were considered to be statistically different at p<0.04.

`O=C(O)c1ccccc1O` [Salicylic acid] was tested, and the “increase in Benzyl Isothiocyanate accumulation over the control treatment” value (salicylic acid 10 mg/L) was 1.7 times, the “Concentration of benzyl isothiocyanate” value (salicylic acid 10 mg/L) was 2.174 μg/g fresh weight and the Dry weight (salicylic acid 10 mg/L) was 4.807 g. The Fresh weight (salicylic acid 10 mg/L) was 5.985 g, the “Concentration of benzyl isothiocyanate” value (salicylic acid 20 mg/L) was 2.039 μg/g fresh weight and the Dry weight (salicylic acid 20 mg/L) was 4.424 g. For the same compound, the Fresh weight (salicylic acid 20 mg/L) was 4.981 g, the “Concentration of benzyl isothiocyanate” value (salicylic acid 40 mg/L) was 1.956 μg/g fresh weight and the Dry weight (salicylic acid 40 mg/L) was 5.107 g. It also gave a Fresh weight (salicylic acid 40 mg/L) of 5.509 g.
